The text below walks through data of patent publication US10076527B2, “Standardized extract and its use in the manufacture of a medicament” (priority 2006, dated 2018).

One data set relates to normal mice. In words: Excretion promotion study in normal mice (India ink). It counts as in vivo, ICR mice. The following applies: positive control, hypodermic injection 0.1 ml/10 g, p<0.01. The procedure:
In this experiment, 50 male ICR mice weighing 23-27 g respectively were divided randomly into 5 groups with 10 per group, i.e. normal control, positive control and three dose groups at 2.48 mg/kg, 4.96 mg/kg and 9.92 mg/kg, respectively. They were fasted for 24 hours before the experiment.
The mice in the positive control group were given an injection of 0.1 ml/10 g body weight of Neostigmine hypodermically while the mice in the normal control groups were given rectal administrations of saline of 0.02 ml/10 g body weight. The mice in the three dose groups were given rectal administrations of the Muskmelon-Base extract (diluted with saline to give desired doses and given 0.02 ml/10 g body weight).
After medication, all the mice were intra-gastrically given infusions of India ink (10% ink, diluted with saline, at the dose 0.02 ml/10 g of body weight). The mice were individually put into a cage with white filter paper flooring. The time of excretion and quantity of the feces were recorded during 4-hour observation periods.

Data set [1] has as its system mice with gastrointestinal hypo-function induced by atropine. As to the kind of experiment: Intestine enterokinesia in mice with gastrointestinal hypo-function induced by atropine. It counts as in vivo, ICR mice. The conditions noted are these: extract high dose rectal; Neostigmine 0.15 mg/kg hypodermic. The procedure: In this experiment, 66 male ICR mice weighing 22-26 g respectively were divided randomly into 6 groups with 11 per group. They were fasted for 24 hours before the experiment. The 6 groups were named as: • Normal control group, • Model group, • Positive control group, and • The three dose groups.
The mice in the normal control group were only injected saline at 0.1 ml/10 g and mice in all other groups were injected 0.25 mg/kg of Atropine hypodermic at 0.1 ml/10 g body weight.
Twenty minutes after injection Muskmelon-Base extract (diluted with the saline) was given to the mice at the doses of […] by rectal administration and saline solution was given to the mice in normal, control and the model groups. Neostigmine hypodermic injection (0.15 mg/kg) was given to the mice in the positive control group at the dose 0.1 ml/10 g body weight. A further 20 minutes later, an intragastric administration of 10% ink was given to all the mice at the dose 0.2 ml/10 g body weight.
All the mice were killed and laparotomized in 90 minutes. The intestine from the pylorus to the anus was taken out to measure the whole length of the alimentary tract. The distance from the pylorus to the front the ink impelled was measured to calculate the impelling percentage.

Another data set concerns conscious cats. The following applies: intravenous injection; cited from earlier work.
The subject of another data set is conscious dogs. The following applies: intravenous injection; cited from earlier work.
A further data set deals with anesthetized dogs. The following applies: intravenous injection; cited from earlier work.
Data set [2] has as its system isolated guinea pig ileum. The conditions noted are these: concentration of 54 mg/ml; cited from earlier work.

Turning to `CN(C)C(=O)Oc1cccc([N+](C)(C)C)c1` [Neostigmine], the “quantity of the feces increased vs normal control” value with normal mice (4-hour observation) came to 49%. Also, in the data set on normal mice, the “duration for the first excretion of black feces shortened vs normal control” value was 53%. Also, in data set [1], the “muscle spasm side effect” value is “always found in all mice”.

With `CC(C)(O)/C=C/C(=O)[C@](C)(O)[C@H]1[C@H](O)C[C@@]2(C)[C@@H]3CC=C4[C@@H](C[C@H](O)C(=O)C4(C)C)[C@]3(C)C(=O)C[C@]12C` [Cucurbitacin D], the diarrhea result in the data set on conscious cats and with conscious dogs was “induced diarrhea” throughout. Further, the enterokinesia entry with anesthetized dogs is “stimulated enterokinesia”. In addition, in data set [2], the “effect on isolated guinea pig ileum” value is “did not cause any visible effect”.
